Test systems include ACHN renal; HCC-2998 colon; K-562 leukemia; NCI-H522 lung; OVCAR-3 ovarian; RPMI-8226 leukemia; SK-MEL-28 melanoma; SR leukemia; TK-10 renal; SK-OV-3 ovarian.
Common to all, as to assay: growth of human tumour cells (NCI), 48 h

“And” between values parts separate entries of the source, which are not always exact repeats. Equal entries are not always repeated.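 Cultured in 96-well plates, cells were exposed to test compound for 48 hours across five concentrations. GI50: concentration for 50% inhibition of growth. At the TGI there is no net growth.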

For `N#Cc1c(-c2nc3ccccc3s2)c(=O)oc2cc(O)ccc12`, the TGI with ACHN renal, in the experiment on HCC-2998 colon, with K-562 leukemia, with NCI-H522 lung, in the experiment on OVCAR-3 ovarian and with RPMI-8226 leukemia was greater than 100 µM in each case. Besides, the TGI in the experiment with SK-MEL-28 melanoma, in the experiment with SR leukemia and in the experiment with TK-10 renal was greater than 100 µM in each case.

As to `Cc1cc(C)nc(NS(=O)(=O)c2ccc(Nc3c4ccccc4nc4c(C(=O)Nc5ccc(S(=O)(=O)N=C(N)N)cc5)ccc(Cl)c34)cc2)n1`, the TGI was greater than 100 µM with ACHN renal; 38.4 µM in the experiment on HCC-2998 colon; greater than 100 µM in the experiment on K-562 leukemia; 29.4 µM with NCI-H522 lung; 37.5 µM in the experiment on OVCAR-3 ovarian; 80.1 µM with RPMI-8226 leukemia. The TGI with SK-OV-3 ovarian was determined as 51 µM; in the experiment on SR leukemia it was 65.4 µM; in the experiment on TK-10 renal it was 95.5 µM.

As for `N#Cc1cn(C2OC(CO)C(O)C2O)c2ncnc(N)c12` (stereo not given), the GI50 was less than 0.01 µM in the experiment on ACHN renal; 0.0609 µM and 0.0758 µM and < 0.0249 µM in the experiment with HCC-2998 colon; 0.0175 µM in the experiment with K-562 leukemia; 0.0293 µM in the experiment with NCI-H522 lung; 0.0303 µM and 0.045 µM and < 0.01 µM with RPMI-8226 leukemia; 0.0329 µM in the experiment on SK-MEL-28 melanoma. Besides, the GI50 with SK-OV-3 ovarian is 0.108 µM; with TK-10 renal, 0.000405 µM. Moreover, the TGI is 0.02 µM with ACHN renal, greater than 100 µM in the experiment with SR leukemia and 0.0771 µM with TK-10 renal.

In the case of `COc1cc2c3c(n(C)c(=O)c2cc1OC)-c1cc2c(cc1/C3=C\CCCCCN)OCO2`, the GI50 in the experiment with ACHN renal is 0.289 µM; in the experiment with HCC-2998 colon, 1.28 µM; in the experiment on NCI-H522 lung, 1.23 µM; with OVCAR-3 ovarian, 2.79 µM; in the experiment with RPMI-8226 leukemia, 0.1 µM; with SK-MEL-28 melanoma, 33.7 µM. The GI50 with SK-OV-3 ovarian is 8.62 µM; with SR leukemia, less than 0.01 µM. Moreover, the TGI in the experiment with ACHN renal was 9.28 µM; in the experiment on HCC-2998 colon, 39.5 µM; in the experiment on NCI-H522 lung, greater than 100 µM; in the experiment on OVCAR-3 ovarian, 22.1 µM; in the experiment on RPMI-8226 leukemia, 1.38 µM; in the experiment on SK-MEL-28 melanoma it was greater than 100 µM. In addition, the TGI came to 44.7 µM with SK-OV-3 ovarian and 22.5 µM in the experiment with TK-10 renal.

For the compound `N=C1C(c2nc(-c3ccc(Br)cc3)cs2)=C(O)CN1Cc1cccnc1`, the GI50 in the experiment on ACHN renal was 16.4 µM; with HCC-2998 colon, 24.3 µM; in the experiment with K-562 leukemia it was 8.17 µM; in the experiment on OVCAR-3 ovarian, 14 µM; with RPMI-8226 leukemia it was 2.88 µM; with SK-MEL-28 melanoma it was 15.7 µM. In addition, the GI50 with SK-OV-3 ovarian is 25.3 µM; with SR leukemia it was 17.3 µM; in the experiment with TK-10 renal, 2.23 µM. The TGI in the experiment with ACHN renal was 98.8 µM; with HCC-2998 colon it was 80.4 µM; in the experiment on K-562 leukemia it was greater than 100 µM; with OVCAR-3 ovarian, 42 µM; in the experiment with RPMI-8226 leukemia it was 76.5 µM; in the experiment with SK-MEL-28 melanoma, 51.7 µM. In addition, the figures for the TGI in the experiment with SK-OV-3 ovarian, in the experiment on SR leukemia and in the experiment with TK-10 renal were greater than 100 µM, 67.2 µM and 45.3 µM, respectively.

For `O=C(Oc1ccc(Cl)cc1Cl)c1ccccc1Nc1ccnc(C(F)(F)F)c1`, the GI50 is 13.2 µM in the experiment on ACHN renal; 3.25 µM in the experiment on HCC-2998 colon; 3.03 µM in the experiment with K-562 leukemia; 4.61 µM with NCI-H522 lung; 11 µM in the experiment with OVCAR-3 ovarian; 2.39 µM with RPMI-8226 leukemia. Moreover, the figures for the GI50 with SR leukemia and in the experiment with TK-10 renal were 0.772 µM and 4.05 µM, respectively. The TGI with ACHN renal worked out at 27 µM; in the experiment with HCC-2998 colon it was 5.49 µM; in the experiment on K-562 leukemia it was 8.51 µM; with NCI-H522 lung, 36 µM; in the experiment with OVCAR-3 ovarian, 24.9 µM; in the experiment with RPMI-8226 leukemia it was 6.29 µM. Besides, the TGI in the experiment on SR leukemia is greater than 100 µM; in the experiment on TK-10 renal, 23.9 µM.

In the case of `Cc1ncc(CN=Cc2ccc(Cl)cc2)c(N)n1`, the TGI in the experiment on ACHN renal, in the experiment on K-562 leukemia, with NCI-H522 lung, with OVCAR-3 ovarian, with RPMI-8226 leukemia and with SK-MEL-28 melanoma was greater than 100 µM each time. In addition, the TGI in the experiment on SK-OV-3 ovarian, in the experiment with SR leukemia and in the experiment on TK-10 renal was greater than 100 µM throughout.

For the compound `CC[C@H](C)N(CCN)C(=O)c1cc2ccccc2c(-c2ccccc2Cl)n1`, the TGI in the experiment with ACHN renal came to 28.1 µM; in the experiment with HCC-2998 colon it was 9.06 µM; with K-562 leukemia, 12.6 µM; with NCI-H522 lung it was 34 µM; in the experiment with OVCAR-3 ovarian, 34 µM; in the experiment with RPMI-8226 leukemia, 32.4 µM. The TGI with SK-MEL-28 melanoma was found to be 27 µM; in the experiment with SR leukemia, 28.1 µM; with TK-10 renal it was 25.5 µM.

On to `CN(C)c1cccc2c(S(=O)(=O)N[C@H]3CC[C@H]4[C@@H]5CCc6cc(O)ccc6[C@H]5CC[C@]34C)cccc12`, for which the GI50 with ACHN renal is 3.1 µM; in the experiment on HCC-2998 colon it was 3.17 µM; with K-562 leukemia it was 1.71 µM; in the experiment on OVCAR-3 ovarian it was 2.33 µM; in the experiment with RPMI-8226 leukemia, 2.32 µM; with SK-MEL-28 melanoma, 2.2 µM. For the same compound, the GI50 was 3.83 µM in the experiment on SK-OV-3 ovarian, 2.79 µM in the experiment with SR leukemia and 3.2 µM with TK-10 renal. The TGI was 14.1 µM in the experiment with ACHN renal; 14.6 µM in the experiment with HCC-2998 colon; greater than 100 µM with K-562 leukemia; 6.26 µM in the experiment with OVCAR-3 ovarian; 7.8 µM in the experiment on RPMI-8226 leukemia; 5.89 µM in the experiment on SK-MEL-28 melanoma. Also, the TGI in the experiment with SK-OV-3 ovarian was 74.3 µM; in the experiment with SR leukemia, greater than 100 µM; in the experiment with TK-10 renal, 9.82 µM.

For `O=C1CC(O)C=C1Nc1ccc(Cl)cc1` (stereo not given), the TGI with ACHN renal was greater than 100 µM; with HCC-2998 colon it was 44.5 µM; in the experiment on K-562 leukemia, greater than 100 µM; with NCI-H522 lung it was 48.4 µM; with OVCAR-3 ovarian, greater than 100 µM; in the experiment on SK-MEL-28 melanoma, greater than 100 µM. Further, the values for the TGI in the experiment on SK-OV-3 ovarian, in the experiment with SR leukemia and with TK-10 renal were greater than 100 µM, 90.9 µM and greater than 100 µM, respectively.

With `N#CCC1COc2ccccc2O1` (stereo not given), the TGI with ACHN renal, in the experiment on HCC-2998 colon, in the experiment with K-562 leukemia, in the experiment with NCI-H522 lung, with RPMI-8226 leukemia and in the experiment with SK-MEL-28 melanoma was greater than 10 µM throughout. Also, the TGI with SK-OV-3 ovarian, in the experiment with SR leukemia and in the experiment on TK-10 renal was greater than 10 µM in each case.

In the case of `N#Cc1c(Sc2ccccc2N)cccc1Sc1ccccc1N`, the GI50 is 35.2 µM in the experiment with ACHN renal; 67.7 µM in the experiment with HCC-2998 colon; 22.9 µM in the experiment with K-562 leukemia; 51.7 µM in the experiment on NCI-H522 lung; 28.8 µM in the experiment with RPMI-8226 leukemia; 56.8 µM with SR leukemia.

As to `CCOC(=O)C(=O)Nc1nc2c(s1)C(=O)c1ccccc1C2=O`, the TGI with ACHN renal came out at 28.1 µM; with HCC-2998 colon, 31.6 µM; in the experiment with K-562 leukemia, 33.3 µM; in the experiment with NCI-H522 lung, 29.3 µM; in the experiment with OVCAR-3 ovarian it was 18.6 µM; with RPMI-8226 leukemia it was 48.2 µM. In addition, the TGI is 27.6 µM in the experiment on SK-MEL-28 melanoma and 23.4 µM in the experiment on SR leukemia.

`CC1=C(C)C(=O)c2c(cc3ccc4ccccc4n23)C1=O`: the TGI in the experiment with ACHN renal, in the experiment on HCC-2998 colon, in the experiment with K-562 leukemia, in the experiment with OVCAR-3 ovarian, with RPMI-8226 leukemia and in the experiment on SK-MEL-28 melanoma was greater than 100 µM each time. In addition, the TGI with SK-OV-3 ovarian, in the experiment on SR leukemia and in the experiment with TK-10 renal was greater than 100 µM each time.

In the case of `CC1=C(C(=O)Nc2ccccc2C)C(c2ccccc2)C(C(=O)Nc2ccccc2C)=C(C)N1`, the TGI in the experiment with ACHN renal, with HCC-2998 colon, in the experiment on K-562 leukemia, with NCI-H522 lung, in the experiment with OVCAR-3 ovarian and in the experiment on SK-MEL-28 melanoma was greater than 100 µM throughout. Further, the TGI is greater than 100 µM in the experiment on SK-OV-3 ovarian, 42.5 µM in the experiment on SR leukemia and greater than 100 µM with TK-10 renal.

Turning to `COc1cc(CCc2ccc(OCCN(C)C)cc2)cc(OC)c1OC`, the TGI in the experiment on ACHN renal, with K-562 leukemia, in the experiment with NCI-H522 lung, in the experiment on OVCAR-3 ovarian, in the experiment with RPMI-8226 leukemia and with SK-MEL-28 melanoma was greater than 100 µM in each case. The TGI in the experiment on SR leukemia and in the experiment with TK-10 renal was greater than 100 µM in each case.

As for `COc1ccc(N=C2CSc3nnc(-c4cc(F)c(Cl)cc4Cl)n3N2)cc1`, the GI50 was 2.33 µM in the experiment with ACHN renal; 0.515 µM with K-562 leukemia; 0.296 µM in the experiment on NCI-H522 lung; 0.466 µM in the experiment on OVCAR-3 ovarian; 1.41 µM in the experiment on RPMI-8226 leukemia; 2.38 µM with SK-MEL-28 melanoma. Besides, the results for the GI50 in the experiment on SK-OV-3 ovarian, in the experiment on SR leukemia and with TK-10 renal were 0.987 µM, 0.33 µM and 1.4 µM, respectively. The TGI was determined as 11.5 µM in the experiment with ACHN renal; 18.1 µM with K-562 leukemia; 0.885 µM with NCI-H522 lung; 2.02 µM in the experiment with OVCAR-3 ovarian; 11 µM with RPMI-8226 leukemia; 21.4 µM in the experiment on SK-MEL-28 melanoma. Moreover, the figures for the TGI with SK-OV-3 ovarian, with SR leukemia and in the experiment on TK-10 renal were 5.39 µM, 0.799 µM and 4.06 µM, respectively.

As to `O=[N+]([O-])c1ccc(C(c2c[nH]c3ccccc23)c2c[nH]c3ccccc23)cc1`, the TGI in the experiment with ACHN renal stood at 21.5 µM; with HCC-2998 colon, 39.3 µM; with K-562 leukemia it was 48 µM; in the experiment with OVCAR-3 ovarian, 8.31 µM; in the experiment with RPMI-8226 leukemia it was 13.4 µM; with SK-MEL-28 melanoma it was 36.1 µM. Further, the results for the TGI in the experiment with SK-OV-3 ovarian, in the experiment on SR leukemia and in the experiment on TK-10 renal were 33.1 µM, 22.5 µM and 28.5 µM, respectively.

The values above are taken from PubChem BioAssay (NCI).
